Assay results published in paper PMC7616174, “Development of Novel 4-Arylpyridin-2-one and 6-Arylpyrimidin-4-one Positive Allosteric Modulators of the M1 Muscarinic Acetylcholine Receptor” (ChemMedChem, 2020).

Tests used:
hM1 mAChR [1] = target: T1, hM1 mAChR (Homo sapiens, UniProt P11229); test: IP1 accumulation assay (ACh concentration-response curves in absence or presence of modulator); type: cell-based
T1 construct: expressed in transfected cells
T1 sequence (P11229 1-460): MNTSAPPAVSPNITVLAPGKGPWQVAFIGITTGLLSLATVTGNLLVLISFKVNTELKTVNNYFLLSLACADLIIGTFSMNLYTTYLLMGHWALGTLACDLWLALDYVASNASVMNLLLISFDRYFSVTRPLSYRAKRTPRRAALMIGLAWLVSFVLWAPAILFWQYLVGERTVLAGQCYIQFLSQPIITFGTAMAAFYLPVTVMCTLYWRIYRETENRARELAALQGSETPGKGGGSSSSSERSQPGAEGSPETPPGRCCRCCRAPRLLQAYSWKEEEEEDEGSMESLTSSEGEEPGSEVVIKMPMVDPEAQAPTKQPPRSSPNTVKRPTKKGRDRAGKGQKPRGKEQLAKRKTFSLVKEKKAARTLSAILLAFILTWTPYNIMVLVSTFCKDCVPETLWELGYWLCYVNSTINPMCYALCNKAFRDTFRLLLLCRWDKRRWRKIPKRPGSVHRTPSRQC
Description: Functional activity of the synthesized analogues as racemic mixtures was investigated in IP1 accumulation assays at the M1 mAChR, as described previously.[13–14] ACh concentration-response curves were generated in the absence or presence of a 1 and 10 μM concentration of each modulator. The change in baseline activity (Δbaseline) is an approximate measure of direct allosteric agonism (τB), whereas the pEC50 shift (ΔpEC50) is an approximate measure of functional cooperativity (αβ) of each modulator with ACh in the investigated signalling pathway. We aimed to identify modulators with various degrees of allosteric agonism and modulatory effects on ACh response, as these could generate distinct in vivo outcomes for applications in different conditions in the CNS or gastrointestinal (GI) tract.[[10g,h,j]]
(§1) The compounds were then fully characterised in two functional assays (Figure 2C and D); the Gq-coupled IP1 accumulation assay (Figure S2), which was used for the initial screening of the compounds, and a β-arrestin 2 recruitment assay (Figure S3). The operational efficacy (τB) values for the modulators and their functional cooperativity estimates with ACh (logαβACh) at both signalling pathways were estimated by applying an operational model of allosterism and agonism to the data [Eq. (3)],[16] and are listed in Table 5.
FlpIn CHO cells stably expressing the hM1 mAChR were seeded at 25000 per well of 96-well transparent cell culture plates and grown overnight. […] Cells were then stimulated with increasing concentration of ACh in the absence or presence of increasing concentrations of each modulator for 1 h at 37°C. […] Seven μL of cell lysates were transferred into wells of 384-well Proxiplates (Perki-nElmer Life Sciences), and IP1 levels were measured using the IP-One assay kit (Cisbio, Codolet, France). […] The signal was expressed as the HTRF ratio, interpolated from the standard curve, and normalized to the maximum response to ACh.
Changes in both baseline and pEC50 were quantified by subtracting the estimates at each M1 PAM concentrations with the control values. Propagation of the error on baseline and potency values were determined as follows [Eq. (1)]: σΔ=σPAM2+σcont.2 where σΔ is the standard error of the mean (SEM) for the change in value, and σPAM and σcont. are the SEM from the three-parameter logistic equation analysis in presence or absence of M1 PAM, respectively.
(§2) Functional interaction studies between ACh and allosteric modulators in IP1 and β-arrestin 2 recruitment assays were analysed according to a three-parameter logistic equation or the following operational model of allosterism and agonism [Eq. (3)].[16] E=Basal+(Em−Basal)([A](KB+αβ[B])+τB[B]EC50)^n/EC50n(KB+[B])^n+([A](KB+αβ[B])+τB[B]EC50)^n where Em is the maximal possible system response, and Basal is the response in the absence of agonist. [A] and [B] are concentrations of orthosteric and allosteric ligands, respectively. KB is the equilibrium dissociation constant of allosteric ligand, and EC50 is the concentration of orthosteric agonist required to achieve half maximal response. α and β represent the magnitude of the allosteric effects on orthosteric ligand affinity and efficacy, respectively; τB is the efficacy of allosteric ligand, and n is the slope factor of the transducer function that links occupancy to response.

hM1 mAChR [2] = target: T1, hM1 mAChR; test: Whole-cell [3H]NMS equilibrium competition radioligand binding; details: [3H]NMS binding
Description: To determine the affinity (pKB) of the allosteric modulators for the allosteric site, and their binding cooperativity with ACh (log αACh) at the M1 mAChR, whole cell equilibrium competition binding studies were performed, using [^3H]NMS to label the orthosteric site.
FlpIn Chinese hamster ovary (CHO) cells stably expressing the hM1 mAChR were grown in Dulbecco’s modified Eagle’s medium (DMEM) (Invitrogen, Carlsbad, CA) supplemented with 5% foetal bovine serum (FBS) (Thermo-Trace, Melbourne, Australia) and 300 μg/mL G418 (Invitrogen, Carlsbad, CA). The cells were plated at 50,000 cells per well of 96-well white clear bottom plates (Greiner Bio-one, Kremsmünster, Austria), and were grown overnight. The following day, cells were washed twice with Phosphate Buffered Saline (PBS), and incubated with increasing concentrations of ACh (Sigma) in the absence or presence of increasing concentrations of each modulator and 0.2 nM [^3H]NMS (PerkinElmer Life Sciences) in binding buffer (20 mM HEPES, 100 mM NaCl, 10 mM MgCl2, pH 7.4) for 5 h at room temperature. Nonspecific binding was determined using atropine at the final concentration of 10 μM. The assays were terminated by rapid removal of the unbound radioligand followed by two washes with 100 μL/well ice-cold 0.9% NaCl buffer. Radioactivity was determined by addition of 100 μL/well Ultima gold (PerkinElmer Life Sciences) and counting in a MicroBeta plate reader (PerkinElmer Life Sciences).
Binding interaction studies with allosteric ligands were fitted to the following allosteric ternary complex model [Eq. (2)][15] Y=Bmax|A|/[Λ]+[KAKB/α^′[B]+KB][1+[I]/K1+[B]/KB+α[I][B]/KIKB] where Bmax is the total number of receptors, [A], [B] and [I] denote the concentrations of radioligand, allosteric modulator, and orthosteric ligand, respectively; KA, KB and KI are their respective equilibrium dissociation constants. α’ and α are the affinity cooperativity factors between the allosteric ligand and radioligand or the allosteric modulator and ACh, respectively. Values of α or α’ > 1 denote positive cooperativity, values < 1 but > 0 denote negative cooperativity, and a value of 1 indicates neutral coopera-tivity.

M1 mAChR = target: T2, M1 mAChR (Homo sapiens, UniProt P11229); test: β-arrestin 2 recruitment assay (BRET); type: cell-based
T2 construct: expressed in transfected cells; host or cells: parental FlpIn CHO cells (transient, PEI)
T2 sequence (P11229 1-460): T1 sequence (P11229 1-460)
Source text: as §1
Parental FlpIn CHO cells were plated at 30000 cells/well of 96-well white Culture plates (Perkin Elmer Life Sciences) and transiently transfected with 10 ng/well of M1 Renilla luciferase (Rluc)-8 and 40 ng/well of YFP-β-arrestin 2 using linear polyethyleneimine (PEI/DNA ratio 6:1) diluted in 150 mM NaCl. DNA:PEI complexes were formed by 15 min incubation at room temperature then added to the cells and incubated at 37°C for 24 h prior to use. Cells were then washed and equilibrated in Hanks’ balanced salt solution for 1 h at 37°C. Coelenterazine h at a final concentration of 5 μM was added to each well, followed by addition of increasing concentrations of ACh in the absence or presence of increasing concentrations of each modulator. Lumines-cence and fluorescence signals were measured 5 min after agonist stimulation using the LUMIstar Omega plate reader (BMG LabTech, Offenburg, Germany). […] Data were then normalized to the maximum response to ACh.
as §2

[3] = IP1 accumulation, antilog, in parentheses

## O=c1cc(-c2ccccc2OCc2ccc(-n3cccn3)nc2)ncn1C1CCCCC1O (stereo not drawn) [Compound 27b, 6-(2-((6-(1H-Pyrazol-1-yl)pyridin-3-yl)methoxy)phenyl)-3-(2-hydroxycyclohexyl)pyrimidin-4(3H)-one]
hM1 mAChR [1]; 1 μM modulator, FlpIn CHO hM1 cells, mean ± SEM, 3 experiments
  ΔpEC50 [1 μM]: change in ACh pEC50 in presence of M1 PAM compared to control curve: 0.96±0.18
hM1 mAChR [1]; 1 μM modulator, FlpIn CHO hM1 cells, mean ± SEM, 3 experiments, read-out: Δbaseline [1 μM]: change in basal response in presence of M1 PAM compared to control curve
  activation at 1 µM: 38.5 ± 3.8%
hM1 mAChR [1]; 10 μM modulator, FlpIn CHO hM1 cells, mean ± SEM, 3 experiments
  ΔpEC50 [10 μM]: change in ACh pEC50 in presence of M1 PAM compared to control curve: 1.50±0.32
hM1 mAChR [1]; 10 μM modulator, FlpIn CHO hM1 cells, mean ± SEM, 3 experiments, read-out: Δbaseline [10 μM]: change in basal response in presence of M1 PAM compared to control curve
  activation at 10 µM: 78.6 ± 2.8%
hM1 mAChR [1]; [3]
  αβ (functional cooperativity with ACh): 112
  τB (intrinsic efficacy of the modulator): 3
hM1 mAChR [1]; IP1 accumulation, operational model
  log τB (logarithm of intrinsic efficacy of the modulator): 0.54±0.04
hM1 mAChR [1]; IP1 accumulation, operational model, pKB constrained to binding value
  log αβ (logarithm of functional cooperativity between ACh and modulator): 2.05±0.12
hM1 mAChR [2]; allosteric ternary complex model, mean ± SEM, read-out: pKB (negative logarithm of the allosteric modulator equilibrium dissociation constant) (converted)
  Kb: 15.8 µM
hM1 mAChR [2]; antilog, in parentheses
  α (binding cooperativity with ACh): 151
hM1 mAChR [2]; mean ± SEM
  log αACh (logarithm of binding cooperativity between ACh and modulator): 2.18±0.19
M1 mAChR; antilog, in parentheses
  αβ (functional cooperativity with ACh): 56
  τB (intrinsic efficacy of the modulator): 0.4
M1 mAChR; operational model
  log τB (logarithm of intrinsic efficacy of the modulator): –0.36±0.12
M1 mAChR; operational model, pKB constrained to binding value
  log αβ (logarithm of functional cooperativity between ACh and modulator): 1.75±0.11
